Reference: patent publication US4450269A, “Mono-5-substituted-3-chloro-4H-1,2,6-thiadiazin-4-one antifungal agents” (FMC Corporation, priority 1980, dated 1984)

Tests used:
Alternaria solani = assay: Mycelial growth test; format: cell-based; conditions: Alternaria solani, 72 h, AS, read-out: Percent Fungus Growth Inhibition
Phytophthora infestans = assay: whole plant or invertebrate; format: in vivo; conditions: for pest or weed control at 150 ppm: Phytophthora infestans, in Solanum lycopersicum, foliar, read-out: Percent Disease Control, foliar, tomato late blight, 150 ppm, protective
Uromyces phaseoli = assay: whole plant or invertebrate; conditions: foliar, 24 h, read-out: Percent Disease Control, curative, bean rust

SMILES: O=c1c(Cl)nsnc1Oc1cccc(Cl)c1 [Compound 13, 3-chloro-5-(3-chlorophenoxy)-4H--1,2,6-thiadiazin-4-one]
- inhibition at 5 ppm (Alternaria solani): 45%
- inhibition at 10 ppm (Alternaria solani): 59%
- inhibition at 20 ppm (Alternaria solani): 86%
- inhibition at 40 ppm (Alternaria solani): 100%
- pest or weed control at 150 ppm (Phytophthora infestans): 98%
- pest or weed control at 150 ppm (Uromyces phaseoli): 90%

SMILES: O=c1c(Cl)nsnc1Oc1ccccc1Cl [Compound 14, 3-chloro-5-(2-chlorophenoxy)-4H--1,2,6-thiadiazin-4-one]
- inhibition at 5 ppm (Alternaria solani): 86%
- inhibition at 10 ppm (Alternaria solani): 79%
- inhibition at 20 ppm (Alternaria solani): 100%
- inhibition at 40 ppm (Alternaria solani): 100%
- pest or weed control at 150 ppm (Phytophthora infestans): 0%
- pest or weed control at 150 ppm (Uromyces phaseoli): 100%

SMILES: O=c1c(Cl)nsnc1Oc1ccc(Br)cc1 [Compound 15, 3-chloro-5-(4-bromophenoxy)-4H--1,2,6-thiadiazin-4-one]
- inhibition at 5 ppm (Alternaria solani): 54%
- inhibition at 10 ppm (Alternaria solani): 66%
- inhibition at 20 ppm (Alternaria solani): 66%
- inhibition at 40 ppm (Alternaria solani): 75%
- pest or weed control at 150 ppm (Phytophthora infestans): 100%
- pest or weed control at 150 ppm (Uromyces phaseoli): 90%

SMILES: O=c1c(Cl)nsnc1Oc1ccc(Cl)c(Cl)c1 [Compound 16, 3-chloro-5-(3,4-dichlorophenoxy)-4H--1,2,6-thiadiazin-4-one]
- inhibition at 5 ppm (Alternaria solani): 38%
- inhibition at 10 ppm (Alternaria solani): 50%
- inhibition at 20 ppm (Alternaria solani): 56%
- inhibition at 40 ppm (Alternaria solani): 50%
- pest or weed control at 150 ppm (Phytophthora infestans): 0%
- pest or weed control at 150 ppm (Uromyces phaseoli): 0%

SMILES: O=c1c(Cl)nsnc1Oc1ccc(Cl)cc1Cl [Compound 17, 3-chloro-5-(2,4-dichlorophenoxy)-4H--1,2,6-thiadiazin-4-one]
- inhibition at 5 ppm (Alternaria solani): 79%
- inhibition at 10 ppm (Alternaria solani): 72%
- inhibition at 20 ppm (Alternaria solani): 93%
- inhibition at 40 ppm (Alternaria solani): 100%
- pest or weed control at 150 ppm (Phytophthora infestans): 100%
- pest or weed control at 150 ppm (Uromyces phaseoli): 100%

SMILES: O=c1c(Cl)nsnc1Oc1c(Cl)cccc1Cl [Compound 18, 3-chloro-5-(2,6-dichlorophenoxy)-4H--1,2,6-thiadiazin-4-one]
- inhibition at 5 ppm (Alternaria solani): 69%
- inhibition at 10 ppm (Alternaria solani): 90%
- inhibition at 20 ppm (Alternaria solani): 90%
- inhibition at 40 ppm (Alternaria solani): 84%
- pest or weed control at 150 ppm (Phytophthora infestans): 50%
- pest or weed control at 150 ppm (Uromyces phaseoli): 0%

SMILES: O=c1c(Cl)nsnc1Oc1cccc(Cl)c1Cl [Compound 19, 3-chloro-5-(2,3-dichlorophenoxy)-4H--1,2,6-thiadiazin-4-one]
- inhibition at 5 ppm (Alternaria solani): 62%
- inhibition at 10 ppm (Alternaria solani): 62%
- inhibition at 20 ppm (Alternaria solani): 90%
- inhibition at 40 ppm (Alternaria solani): 100%
- pest or weed control at 150 ppm (Phytophthora infestans): 0%
- pest or weed control at 150 ppm (Uromyces phaseoli): 100%

SMILES: O=c1c(Cl)nsnc1Oc1cc(Cl)cc(Cl)c1 [Compound 20, 3-chloro-5-(3,5-dichlorophenoxy)-4H--1,2,6-thiadiazin-4-one]
- inhibition at 5 ppm (Alternaria solani): 59%
- inhibition at 10 ppm (Alternaria solani): 59%
- inhibition at 20 ppm (Alternaria solani): 59%
- inhibition at 40 ppm (Alternaria solani): 83%
- pest or weed control at 150 ppm (Phytophthora infestans): 0%
- pest or weed control at 150 ppm (Uromyces phaseoli): 0%

SMILES: Cc1cccc(Oc2nsnc(Cl)c2=O)c1 [Compound 21, 3-chloro-5-(3-methylphenoxy)-4H--1,2,6-thiadiazin-4-one]
- inhibition at 5 ppm (Alternaria solani): 75%
- inhibition at 10 ppm (Alternaria solani): 63%
- inhibition at 20 ppm (Alternaria solani): 75%
- inhibition at 40 ppm (Alternaria solani): 100%
- pest or weed control at 150 ppm (Phytophthora infestans): 50%
- pest or weed control at 150 ppm (Uromyces phaseoli): 0%

SMILES: Cc1ccccc1Oc1nsnc(Cl)c1=O [Compound 22, 3-chloro-5-(2-methylphenoxy)-4H--1,2,6-thiadiazin-4-one]
- inhibition at 5 ppm (Alternaria solani): 63%
- inhibition at 10 ppm (Alternaria solani): 88%
- inhibition at 20 ppm (Alternaria solani): 100%
- inhibition at 40 ppm (Alternaria solani): 100%
- pest or weed control at 150 ppm (Phytophthora infestans): 0%
- pest or weed control at 150 ppm (Uromyces phaseoli): 0%

SMILES: Cc1ccc(Oc2nsnc(Cl)c2=O)c(C)c1 [Compound 23, 3-chloro-5-(2,4-dimethylphenoxy)-4H--1,2,6-thiadiazin-4-one]
- inhibition at 5 ppm (Alternaria solani): 63%
- inhibition at 10 ppm (Alternaria solani): 81%
- inhibition at 20 ppm (Alternaria solani): 100%
- inhibition at 40 ppm (Alternaria solani): 100%
- pest or weed control at 150 ppm (Phytophthora infestans): 0%
- pest or weed control at 150 ppm (Uromyces phaseoli): 0%

SMILES: Cc1cccc(C)c1Oc1nsnc(Cl)c1=O [Compound 24, 3-chloro-5-(2,6-dimethylphenoxy)-4H--1,2,6-thiadiazin-4-one]
- inhibition at 5 ppm (Alternaria solani): 100%
- inhibition at 10 ppm (Alternaria solani): 88%
- inhibition at 20 ppm (Alternaria solani): 100%
- inhibition at 40 ppm (Alternaria solani): 100%
- pest or weed control at 150 ppm (Phytophthora infestans): 98%
- pest or weed control at 150 ppm (Uromyces phaseoli): 0%

SMILES: Cc1cc(C)cc(Oc2nsnc(Cl)c2=O)c1 [Compound 25, 3-chloro-5-(3,5-dimethylphenoxy)-4H--1,2,6-thiadiazin-4-one]
- inhibition at 5 ppm (Alternaria solani): 69%
- inhibition at 10 ppm (Alternaria solani): 75%
- inhibition at 20 ppm (Alternaria solani): 81%
- inhibition at 40 ppm (Alternaria solani): 88%
- pest or weed control at 150 ppm (Phytophthora infestans): 100%
- pest or weed control at 150 ppm (Uromyces phaseoli): 0%

SMILES: Nc1ccc(Oc2nsnc(Cl)c2=O)cc1 [Compound 26, 5-(4-aminophenoxy)-3-chloro-4H--1,2,6-thiadiazin-4-one]
- inhibition at 5 ppm (Alternaria solani): 60%
- inhibition at 10 ppm (Alternaria solani): 80%
- inhibition at 20 ppm (Alternaria solani): 100%
- inhibition at 40 ppm (Alternaria solani): 100%
- Percent Disease Control, foliar, tomato late blight (Phytophthora infestans; 150 ppm, protective): 0%
- pest or weed control at 150 ppm (Uromyces phaseoli): 0%

SMILES: CNC(=O)Nc1ccc(Oc2nsnc(Cl)c2=O)cc1 [Compound 28, 3-chloro-5-[4-(3-methylureido)-phenoxy]-4H--1,2,6-thiadiazin-4-one]
- inhibition at 5 ppm (Alternaria solani): 40%
- inhibition at 10 ppm (Alternaria solani): 47%
- inhibition at 20 ppm (Alternaria solani): 50%
- inhibition at 40 ppm (Alternaria solani): 70%
- pest or weed control at 150 ppm (Phytophthora infestans): 90%
- pest or weed control at 150 ppm (Uromyces phaseoli): 0%

SMILES: O=C(Nc1ccccc1)Nc1ccc(Oc2nsnc(Cl)c2=O)cc1 [Compound 29, 3-chloro-5-[4-(3-phenylureido)-phenoxy]-4H--1,2,6-thiadiazin-4-one]
- inhibition at 5 ppm (Alternaria solani): 47%
- inhibition at 10 ppm (Alternaria solani): 30%
- inhibition at 20 ppm (Alternaria solani): 37%
- inhibition at 40 ppm (Alternaria solani): 47%
- pest or weed control at 150 ppm (Phytophthora infestans): 100%
- pest or weed control at 150 ppm (Uromyces phaseoli): 0%

SMILES: O=c1c(Cl)nsnc1Oc1c(Cl)cc(Cl)cc1Cl [Compound 30, 3-chloro-5-(2,4,6-trichlorophenoxy)-4H--1,2,6-thiadiazin-4-one]
- inhibition at 5 ppm (Alternaria solani): 29%
- inhibition at 10 ppm (Alternaria solani): 67%
- inhibition at 20 ppm (Alternaria solani): 81%
- inhibition at 40 ppm (Alternaria solani): 90%
- pest or weed control at 150 ppm (Phytophthora infestans): 0%
- pest or weed control at 150 ppm (Uromyces phaseoli): 0%

SMILES: O=c1c(Cl)nsnc1Oc1c(Cl)c(Cl)c(Cl)c(Cl)c1Cl [Compound 31, 3-chloro-5-(pentachlorophenoxy)-4H--1,2,6-thiadiazine-4-one]
- inhibition at 5 ppm (Alternaria solani): 48%
- inhibition at 10 ppm (Alternaria solani): 60%
- inhibition at 20 ppm (Alternaria solani): 48%
- inhibition at 40 ppm (Alternaria solani): 67%
- pest or weed control at 150 ppm (Phytophthora infestans): 0%
- pest or weed control at 150 ppm (Uromyces phaseoli): 0%

SMILES: O=c1c(Cl)nsnc1Oc1cccc2ccccc12 [Compound 32, 3-chloro-5(1-naphthoxy)-4H-1,2,6-thiadiazin-4-one]
- inhibition at 5 ppm (Alternaria solani): 58%
- inhibition at 10 ppm (Alternaria solani): 58%
- inhibition at 20 ppm (Alternaria solani): 88%
- inhibition at 40 ppm (Alternaria solani): 92%
- pest or weed control at 150 ppm (Phytophthora infestans): 0%
- pest or weed control at 150 ppm (Uromyces phaseoli): 0%

SMILES: O=c1c(Cl)nsnc1Oc1ccccc1Br [Compound 34, 3-chloro-5-(2-bromophenoxy)-4H-1,2,6,-thiadiazin-4-one]
- inhibition at 5 ppm (Alternaria solani): 100%
- inhibition at 10 ppm (Alternaria solani): 100%
- inhibition at 20 ppm (Alternaria solani): 100%
- inhibition at 40 ppm (Alternaria solani): 100%
- pest or weed control at 150 ppm (Phytophthora infestans): 0%
- pest or weed control at 150 ppm (Uromyces phaseoli): 0%

SMILES: O=c1c(Cl)nsnc1Oc1ccc(O)cc1 [Compound 35, 3-chloro-5-(4-hydroxyphenoxy)-4H-1,2,6-thiadiazin-4-one]
- inhibition at 5 ppm (Alternaria solani): 90%
- inhibition at 10 ppm (Alternaria solani): 100%
- inhibition at 20 ppm (Alternaria solani): 100%
- inhibition at 40 ppm (Alternaria solani): 100%
- pest or weed control at 150 ppm (Phytophthora infestans): 100%
- pest or weed control at 150 ppm (Uromyces phaseoli): 0%

SMILES: O=C(Nc1ccccc1)Oc1ccc(Oc2nsnc(Cl)c2=O)cc1 [Compound 37, 3-chloro-5-[4-(phenylaminocarbonyloxy)phenoxy]-4H-1,2,6,-thiadiazin-4-one]
- inhibition at 5 ppm (Alternaria solani): 46%
- inhibition at 10 ppm (Alternaria solani): 50%
- inhibition at 20 ppm (Alternaria solani): 50%
- inhibition at 40 ppm (Alternaria solani): 54%
- pest or weed control at 150 ppm (Phytophthora infestans): 0%
- pest or weed control at 150 ppm (Uromyces phaseoli): 0%

SMILES: O=C(OCc1ccccc1)Oc1ccc(Oc2nsnc(Cl)c2=O)cc1 [Compound 38, 3-chloro-5-[4-(phenylmethoxycarbonyloxy)phenoxyl]-4H-1,2,6-thiadiazin-4-one]
- inhibition at 5 ppm (Alternaria solani): 5%
- inhibition at 10 ppm (Alternaria solani): 48%
- inhibition at 20 ppm (Alternaria solani): 33%
- inhibition at 40 ppm (Alternaria solani): 90%
- pest or weed control at 150 ppm (Phytophthora infestans): 0%
- pest or weed control at 150 ppm (Uromyces phaseoli): 100%

SMILES: C[S+]([O-])c1ccc(Oc2nsnc(Cl)c2=O)cc1 (stereo not drawn) [Compound 40, 3-chloro-5-[(4-methylsulfinyl)phenoxy]-4H-1,2,6,-thiadiazin-4-one]
- inhibition at 5 ppm (Alternaria solani): 54%
- inhibition at 10 ppm (Alternaria solani): 75%
- inhibition at 20 ppm (Alternaria solani): 92%
- inhibition at 40 ppm (Alternaria solani): 100%
- pest or weed control at 150 ppm (Phytophthora infestans): 75%
- pest or weed control at 150 ppm (Uromyces phaseoli): 0%
